From patent publication US20110152093A1, “Herbicidal compositions comprising flufenacet” (Bayer CropScience AG, priority 2009, published 2011)

Experiments:
Assay type in all cases: in vivo
STEME (Stellaria media) = test: Action under various soil conditions (soil types), test method 7; conditions: g of AS/ha: (A) 90, (B) 1200, (C) 140, (A)+(B)+(C) 90 + 1200 + 140
Method: (§1) In the standard design of the test, seeds of various broad-leaved weed and weed grass biotypes (origins) were sown in a 8-13 cm diameter pot filled with natural soil of a standard field soil (loamy silt; non-sterile) and covered with a covering soil layer of about 1 cm. The pots were then cultivated in a greenhouse (12-16 h of light, temperature day 20-22° C., night 15-18° C.) until the time of application. The pots were treated on a laboratory track sprayer with spray liquors comprising the compositions according to the invention, mixtures of the prior art or components used individually. Application of the active compounds or active compound combinations formulated as WG, WP, EC or otherwise was carried out at the appropriate growth stages of the plants. The application rate for the spray application was 100-600 l of water/ha. After the treatment, the plants were returned to the greenhouses.
(§2) About 3 weeks after the application, the soil action or/and foliar action was assessed visually according to a scale of 0-100% in comparison to an untreated comparative group: 0%=no noticeable effect compared to the untreated comparative group; 100%=full effect compared to the untreated comparative group.
(§3) (notes: the term “seeds” also includes vegetative propagation forms such as, for example, rhizome pieces; abbreviations used: h light=hours of illumination, g of AS/ha=gram of active substance per hectare, l/ha=liter per hectare, S=sensitive, R=resistant) • 1. Pre-emergence action against weeds: seeds of various broad-leaved weed and weed grass biotypes (origins) were sown in a 8-13 cm diameter pot filled with natural soil of a standard field soil (loamy silt; non-sterile) and covered with a covering soil layer of about 1 cm. The pots were then cultivated in a greenhouse (12-16 h of light, temperature day 20-22° C., night 15-18° C.) until the time of application. The pots were treated at the BBCH stage 00-10 of the seeds/plants on a laboratory track sprayer with spray liquors comprising the compositions according to the invention, mixtures or components used individually, as WG, WP, EC or other formulations. The application rate for the spray application was 100-600 l of water/ha. After the treatment, the plants were returned to the greenhouses and, when required, treated with fertilizer and watered. • 2. Post-emergence action against weeds: seeds of various broad-leaved weed and weed grass biotypes (origins) were sown in a 8-13 cm diameter pot filled with natural soil of a standard field soil (loamy silt; non-sterile) and covered with a covering soil layer of about 1 cm. The pots were then cultivated in a greenhouse (12-16 h of light, temperature day 20-22° C., night 15-18° C.) until the time of application. The pots were treated at various BBCH stages between 11-25 of the seeds/plants, i.e. generally between two to three weeks after the start of the cultivation, on a laboratory track sprayer with spray liquors comprising the compositions according to the invention, mixtures or components used individually, as WG, WP, EC or other formulations. The application rate for the spray application was 100-600 l of water/ha. After the treatment, the plants were returned to the greenhouses and, when required, treated with fertilizer and watered. • 3. Selective pre-emergence action: seeds of various crop species (origins) were sown in a 8-13 cm diameter pot filled with natural soil of a standard field soil (loamy silt; non-sterile) and covered with a covering soil layer of about 1 cm. The pots were then cultivated in a greenhouse (12-16 h of light, temperature day 20-22° C., night 15-18° C.) until the time of application. The pots were treated at the BBCH stage 00-10 of the seeds/plants on a laboratory track sprayer with spray liquors comprising the compositions according to the invention, mixtures or components used individually, as WG, WP, EC or other formulations. The application rate for the spray application was 100-600 l of water/ha. […]

[1] = test system: MATCH (Matricaria chamomilla); test: as above; conditions: g of AS/ha: (A) 90, (B) 1200, (C) 140, (A)+(B)+(C) 90 + 1200 + 140
Method: as §1, §2, §3

[2] = test system: HORVS (Hordeum vulgare, summer barley); test: Action under various soil conditions (soil types), test method 7, crop compatibility; conditions: g of AS/ha: (A) 90, (B) 1200, (C) 140, (A)+(B)+(C) 90 + 1200 + 140
Method: as §1, §2
(notes: the term “seeds” also includes vegetative propagation forms such as, for example, rhizome pieces; abbreviations used: h light=hours of illumination, g of AS/ha=gram of active substance per hectare, l/ha=liter per hectare, S=sensitive, R=resistant) • 1. Pre-emergence action against weeds: seeds of various broad-leaved weed and weed grass biotypes (origins) were sown in a 8-13 cm diameter pot filled with natural soil of a standard field soil (loamy silt; non-sterile) and covered with a covering soil layer of about 1 cm. The pots were then cultivated in a greenhouse (12-16 h of light, temperature day 20-22° C., night 15-18° C.) until the time of application. The pots were treated at the BBCH stage 00-10 of the seeds/plants on a laboratory track sprayer with spray liquors comprising the compositions according to the invention, mixtures or components used individually, as WG, WP, EC or other formulations. The application rate for the spray application was 100-600 l of water/ha. After the treatment, the plants were returned to the greenhouses and, when required, treated with fertilizer and watered. • 2. Post-emergence action against weeds: seeds of various broad-leaved weed and weed grass biotypes (origins) were sown in a 8-13 cm diameter pot filled with natural soil of a standard field soil (loamy silt; non-sterile) and covered with a covering soil layer of about 1 cm. The pots were then cultivated in a greenhouse (12-16 h of light, temperature day 20-22° C., night 15-18° C.) until the time of application. The pots were treated at various BBCH stages between 11-25 of the seeds/plants, i.e. generally between two to three weeks after the start of the cultivation, on a laboratory track sprayer with spray liquors comprising the compositions according to the invention, mixtures or components used individually, as WG, WP, EC or other formulations. The application rate for the spray application was 100-600 l of water/ha. After the treatment, the plants were returned to the greenhouses and, when required, treated with fertilizer and watered. • 3. […]

LOLPE (Lolium perenne) [3] = test: Pre-sowing application action against weeds (7 days prior to sowing), test method 5; conditions: application 7 days prior to sowing; g of AS/ha: (A) 90, (B) 1200, (C) 140, (A)+(B)+(C) 90 + 1200 + 140
Method: as §1, §2
(§4) (notes: the term “seeds” also includes vegetative propagation forms such as, for example, rhizome pieces; abbreviations used: h light=hours of illumination, g of AS/ha=gram of active substance per hectare, l/ha=liter per hectare, S=sensitive, R=resistant) • 1. Pre-emergence action against weeds: seeds of various broad-leaved weed and weed grass biotypes (origins) were sown in a 8-13 cm diameter pot filled with natural soil of a standard field soil (loamy silt; non-sterile) and covered with a covering soil layer of about 1 cm. The pots were then cultivated in a greenhouse (12-16 h of light, temperature day 20-22° C., night 15-18° C.) until the time of application. The pots were treated at the BBCH stage 00-10 of the seeds/plants on a laboratory track sprayer with spray liquors comprising the compositions according to the invention, mixtures or components used individually, as WG, WP, EC or other formulations. The application rate for the spray application was 100-600 l of water/ha. After the treatment, the plants were returned to the greenhouses and, when required, treated with fertilizer and watered. • 2. Post-emergence action against weeds: seeds of various broad-leaved weed and weed grass biotypes (origins) were sown in a 8-13 cm diameter pot filled with natural soil of a standard field soil (loamy silt; non-sterile) and covered with a covering soil layer of about 1 cm. The pots were then cultivated in a greenhouse (12-16 h of light, temperature day 20-22° C., night 15-18° C.) until the time of application. […]

AVEFA (Avena fatua) [4] = test: as above; conditions: application 7 days prior to sowing; g of AS/ha: (A) 90, (B) 1200, (C) 140, (A)+(B)+(C) 90 + 1200 + 140
Method: as §1, §2, §4

[5] = test system: HORVS (Hordeum vulgare, summer barley); test: PE crop compatibility at different soil pH values, test method 10; conditions: PE application, g of AS/ha: (A) 90, (B) 1200, (C) 140, (A)+(B)+(C) 90 + 1200 + 140
Method: as §1, §2

AVEFA (Avena fatua) [6] = test: Pre-emergence (PE) action against weeds, greenhouse trial, test method 1; conditions: PE application; g of AS/ha: (A) 90, (B) 1200, (C) 140, (A)+(B)+(C) 90 + 1200 + 140
Method: as §1
as §2, with “group. […]” for “group.”

[7] = test system: MATCH (Matricaria chamomilla); test: as above; conditions: PE application; g of AS/ha: (A) 90, (B) 1200, (C) 140, (A)+(B)+(C) 90 + 1200 + 140
Method: as §1
as §2, with “group. […]” for “group.”

[8] = test system: MATCH (Matricaria chamomilla); test: PE action at different sowing depths, test method 9; conditions: PE application, g of AS/ha: (A) 90, (B) 1200, (C) 140, (A)+(B)+(C) 90 + 1200 + 140
Method: as §1
as §2, with “group. […]” for “group.”

LOLPE (Lolium perenne) [9] = test: PE action under various irrigation conditions, test method 6; conditions: PE application; irrigation from above; g of AS/ha: (A) 90, (B) 1200, (C) 140, (A)+(B)+(C) 90 + 1200 + 140
Method: as §1, §2, §3

## CCC(CC)Nc1c([N+](=O)[O-])cc(C)c(C)c1[N+](=O)[O-] [(B) pendimethalin, N-(1-ethylpropyl)-3,4-dimethyl-2,6-dinitrobenzenamine]
STEME (Stellaria media); IU soil
  activity STEME IU soil: 85%
STEME (Stellaria media); IU/EC73 soil
  activity STEME IU/EC73 soil: 55%
[1]; IU soil
  activity MATCH IU soil: 10%
[1]; IU/EC73 soil
  activity MATCH IU/EC73 soil: 0%
[2]; IU soil
  activity HORVS IU soil (crop plant): 0%
[2]; IU/EC73 soil
  activity HORVS IU/EC73 soil (crop plant): 0%
LOLPE (Lolium perenne) [3]
  activity LOLPE: 0%
AVEFA (Avena fatua) [4]
  activity AVEFA: 70%
[5]; soil pH 7.4
  activity HORVS pH 7.4 (crop plant): 0%
[5]; soil pH 8.4
  activity HORVS pH 8.4 (crop plant): 15%
AVEFA (Avena fatua) [6]
  activity AVEFA: 40%
[7]
  activity MATCH: 18%
[8]; sowing depth 5 mm
  activity MATCH 5 mm: 0%
[8]; sowing depth 20 mm
  activity MATCH 20 mm: 30%
LOLPE (Lolium perenne) [9]
  activity LOLPE: 75%
